In patent US20030170662A1, “Method for screening substance specifically inhibiting non-mevalonate pathway” (priority 2000, published 2003):

Experiments:
B. subtilis 168 (pBMV4) = assay: paper disk growth inhibition on agar medium, B. subtilis 168 (pBMV4); assay type: cell-based, Bacillus subtilis; conditions: 50 μl of 5 μg/ml fosmidomycin on paper disk, 37° C. overnight
Protocol: The B. subtilis 168 (pBMV4) was subjected to shaking culturing at 37° C. overnight in 5 ml of LB liquid medium containing 3.4 μg/ml chloramphenicol. […]
The gene on the pBMV4 is expressed only in the presence of IPTG 50 μl of aqueous solution of 5 μg/ml fosmidomycin was dropped on a paper disk, and then the paper disk was placed on the above two types of agar mediums, followed by culturing at 37° C. overnight.

[1] = test system: B. subtilis delypgA (pBMV4); assay: paper disk growth inhibition on agar medium, B. subtilis delypgA (pBMV4); assay type: cell-based, Bacillus subtilis; conditions: 50 μl of 5 μg/ml fosmidomycin on paper disk, 37° C. overnight
Protocol: The B. subtilis delypgA (pBMV4) was subjected to shaking culturing at 37° C. overnight in 5 ml of LB liquid medium containing 3.4 μg/ml chloramphenicol.
One thousandth amount of the above culture solution was added into Nutrient Broth “Eiken” (Eiken Chemical Co., Ltd.) containing 3.4 μg/ml chloramphenicol to prepare an agar medium.
One thousandth amount of the above culture solution was added into Nutrient Broth “Eiken” containing 1 mM IPTG, 3.4 μg/ml chloramphenicol and 0.02% mevalonic acid to prepare an agar medium. The gene on the pBMV4 is expressed only in the presence of IPTG
50 μl of aqueous solution of 5 μg/ml fosmidomycin was dropped on a paper disk, and then the paper disk was placed on the above two types of agar mediums, followed by culturing at 37° C. overnight.

[2] = medium to which mevalonic acid and IPTG were added
[3] = medium to which mevalonic acid and IPTG were not added

Compound: O=CN(O)CCCP(=O)(O)O [fosmidomycin]
- growth inhibition ring (B. subtilis 168 (pBMV4); [2]): not observed
- growth inhibition ring (B. subtilis 168 (pBMV4); [3]): observed
- growth inhibition ring [1, 2]: not observed
- growth inhibition ring [1, 3]: observed
